Laboratory results as given in ChEMBL document CHEMBL1145268, “Synthesis and evaluation of 6-hydroxy-7-methoxy-4-chromanone- and chroman-2-carboxamides as antioxidants” (Bioorg Med Chem Lett, 2005).

Columns and labels:
Rattus norvegicus [1] = organism: Rattus norvegicus; test: Inhibition concentration against lipid peroxidation initiated by [Fe2+] and L-ascorbic acid in rat brain homogenates; assay type: functional
Rattus norvegicus [2] = organism: Rattus norvegicus; test: Inhibition concentration against DPPH radical scavenging activity […] was determined; assay type: functional

| Compound | IC50 (Rattus norvegicus [1]) [µM] | IC50 (Rattus norvegicus [2]) [µM] |
| --- | --- | --- |
| COc1cc2c(cc1O)C(=O)CC(C(=O)Nc1ccccc1)O2 (stereo unspecified) | 293 | 119 |
| COc1cc2c(cc1O)CCC(C(=O)O)O2 (stereo unspecified) | > 300 | 16.8 |
| CCCCNC(=O)C1CC(=O)c2cc(O)c(OC)cc2O1 (stereo unspecified) | 177 | 66.4 |
| COc1cc2c(cc1O)C(=O)CC(C(N)=O)O2 (stereo unspecified) | > 300 | 214 |
| CCCNC(=O)C1CC(=O)c2cc(O)c(OC)cc2O1 (stereo unspecified) | > 300 | 80.8 |
| COc1cc2c(cc1O)CCC(C(=O)NCc1ccccc1)O2 (stereo unspecified) | 16.6 | 21.7 |
| CCCNC(=O)C1CCc2cc(O)c(OC)cc2O1 (stereo unspecified) | 119 | 42.9 |
| COc1cc2c(cc1O)CCC(C(=O)Nc1ccc([N+](=O)[O-])cc1)O2 (stereo unspecified) | 3.8 | 40.1 |
| CCCCNC(=O)C1CCc2cc(O)c(OC)cc2O1 (stereo unspecified) | 51.3 | 24.8 |
| COc1cc2c(cc1O)CCC(C(=O)Nc1ccccc1)O2 (stereo unspecified) | 6.9 | 24.9 |
| COc1cc2c(cc1O)C(=O)CC(C(=O)O)O2 (stereo unspecified) | > 300 | 104 |
| COc1cc2c(cc1O)C(=O)CC(C(=O)NCc1ccccc1)O2 (stereo unspecified) | > 300 | 118 |
| Cc1c(C)c2c(c(C)c1O)CCC(C)(C(=O)O)O2 (stereo unspecified) [TROLOX] | 166 | 18.2 |
